Laboratory results: EP4722207A1, “OXOISOINDOLINYL-SUBSTITUTED TETRAHYDROPYRIMIDINEDIONE DERIVATIVE AND USE THEREOF” (Gluetacs Therapeutics (Shanghai) Co., Ltd., priority 2023, dated 2024)

Assays:
Format in all cases: cell-based
Conditions in all cases: compounds at 50 nM and 500 nM, 24 hours
WEE1 = biological target: T1, WEE1 (Homo sapiens, UniProt P30291+Q96SW2); assay: Western-blot assay, substrate protein degradation in hPBMCs: WEE1
T1 construct: effects of the compounds of the present disclosure on the expression of target proteins in cells; endogenous in cells; host or cells: human PBMCs (hPBMCs)

IKZF1 = biological target: T2, IKZF1 (Homo sapiens, UniProt Q13422+Q96SW2); assay: Western-blot assay, substrate protein degradation in hPBMCs: IKZF1
T2 construct: effects of the compounds of the present disclosure on the expression of target proteins in cells; endogenous in cells; host or cells: human PBMCs (hPBMCs)

IKZF2 = biological target: T3, IKZF2 (Homo sapiens, UniProt Q96SW2+Q9UKS7); assay: Western-blot assay, substrate protein degradation in hPBMCs: IKZF2
T3 construct: effects of the compounds of the present disclosure on the expression of target proteins in cells; endogenous in cells; host or cells: human PBMCs (hPBMCs)

IKZF3 = biological target: T4, IKZF3 (Homo sapiens, UniProt Q96SW2+Q9UKT9); assay: Western-blot assay, substrate protein degradation in hPBMCs: IKZF3
T4 construct: effects of the compounds of the present disclosure on the expression of target proteins in cells; endogenous in cells; host or cells: human PBMCs (hPBMCs)

CK1α = biological target: T5, CK1α (Homo sapiens, UniProt P48729+Q96SW2); assay: Western-blot assay, substrate protein degradation in hPBMCs: CK1α
T5 construct: effects of the compounds of the present disclosure on the expression of target proteins in cells; endogenous in cells; host or cells: human PBMCs (hPBMCs)

GSPT1 = biological target: T6, GSPT1 (Homo sapiens, UniProt P15170+Q96SW2); assay: Western-blot assay, substrate protein degradation in hPBMCs: GSPT1
T6 construct: effects of the compounds of the present disclosure on the expression of target proteins in cells; endogenous in cells; host or cells: human PBMCs (hPBMCs)
T6 sequence (P15170 whole entry): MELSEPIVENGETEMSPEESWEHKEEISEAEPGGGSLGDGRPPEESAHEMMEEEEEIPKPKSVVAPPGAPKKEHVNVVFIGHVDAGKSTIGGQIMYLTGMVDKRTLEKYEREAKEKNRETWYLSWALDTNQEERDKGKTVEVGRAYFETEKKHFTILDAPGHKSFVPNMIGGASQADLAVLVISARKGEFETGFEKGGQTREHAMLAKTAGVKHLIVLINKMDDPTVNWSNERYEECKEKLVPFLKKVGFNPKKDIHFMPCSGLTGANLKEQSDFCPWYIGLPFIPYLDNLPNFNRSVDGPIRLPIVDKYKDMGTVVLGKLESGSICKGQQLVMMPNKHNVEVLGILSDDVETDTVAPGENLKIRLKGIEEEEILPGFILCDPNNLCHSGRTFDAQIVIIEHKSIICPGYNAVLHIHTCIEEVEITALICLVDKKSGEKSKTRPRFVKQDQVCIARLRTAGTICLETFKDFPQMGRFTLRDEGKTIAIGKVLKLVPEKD
T6 sequence (Q96SW2 whole entry): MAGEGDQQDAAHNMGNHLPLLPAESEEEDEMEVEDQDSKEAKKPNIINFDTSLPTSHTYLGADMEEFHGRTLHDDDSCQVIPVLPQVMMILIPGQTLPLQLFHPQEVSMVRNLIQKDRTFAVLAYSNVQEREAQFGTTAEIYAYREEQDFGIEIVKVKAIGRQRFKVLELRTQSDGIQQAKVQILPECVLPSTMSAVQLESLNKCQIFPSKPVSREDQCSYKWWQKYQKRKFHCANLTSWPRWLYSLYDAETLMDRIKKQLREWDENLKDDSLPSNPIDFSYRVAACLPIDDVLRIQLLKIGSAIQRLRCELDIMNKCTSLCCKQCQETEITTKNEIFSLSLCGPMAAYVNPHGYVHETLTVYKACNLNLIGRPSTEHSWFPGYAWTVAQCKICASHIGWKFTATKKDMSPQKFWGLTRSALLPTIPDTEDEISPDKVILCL
T6 sequence (Q16531 whole entry partner): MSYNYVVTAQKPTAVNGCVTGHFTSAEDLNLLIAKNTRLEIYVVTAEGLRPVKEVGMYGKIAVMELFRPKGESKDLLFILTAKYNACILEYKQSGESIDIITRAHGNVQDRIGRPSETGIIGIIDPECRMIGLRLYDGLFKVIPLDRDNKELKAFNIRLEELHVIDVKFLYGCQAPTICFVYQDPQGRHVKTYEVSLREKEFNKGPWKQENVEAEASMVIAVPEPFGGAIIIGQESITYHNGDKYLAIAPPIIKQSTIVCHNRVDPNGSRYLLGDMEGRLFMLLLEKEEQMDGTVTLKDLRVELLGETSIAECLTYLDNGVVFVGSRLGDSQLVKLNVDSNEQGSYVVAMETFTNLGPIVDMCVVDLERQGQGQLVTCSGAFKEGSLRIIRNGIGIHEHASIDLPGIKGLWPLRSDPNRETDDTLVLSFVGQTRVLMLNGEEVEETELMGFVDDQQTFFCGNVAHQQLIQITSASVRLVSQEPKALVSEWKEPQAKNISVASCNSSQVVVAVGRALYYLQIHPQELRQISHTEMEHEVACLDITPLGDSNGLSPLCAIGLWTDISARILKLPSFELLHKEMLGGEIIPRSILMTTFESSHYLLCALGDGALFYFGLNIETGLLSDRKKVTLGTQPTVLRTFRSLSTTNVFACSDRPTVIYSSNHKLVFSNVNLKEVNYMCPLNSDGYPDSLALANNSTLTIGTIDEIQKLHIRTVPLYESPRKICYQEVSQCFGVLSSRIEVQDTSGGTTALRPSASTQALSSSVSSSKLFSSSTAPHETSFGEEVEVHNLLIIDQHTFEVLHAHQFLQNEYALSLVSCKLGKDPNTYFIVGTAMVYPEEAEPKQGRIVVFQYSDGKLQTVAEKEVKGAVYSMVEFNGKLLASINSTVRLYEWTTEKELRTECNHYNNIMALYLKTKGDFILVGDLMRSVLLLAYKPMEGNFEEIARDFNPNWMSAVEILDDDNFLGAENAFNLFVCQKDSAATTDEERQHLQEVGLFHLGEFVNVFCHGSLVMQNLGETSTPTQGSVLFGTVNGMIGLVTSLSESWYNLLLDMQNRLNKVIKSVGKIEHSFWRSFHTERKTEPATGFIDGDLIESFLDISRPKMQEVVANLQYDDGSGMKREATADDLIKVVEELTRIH

T3 sequence (Q9UKS7 whole entry): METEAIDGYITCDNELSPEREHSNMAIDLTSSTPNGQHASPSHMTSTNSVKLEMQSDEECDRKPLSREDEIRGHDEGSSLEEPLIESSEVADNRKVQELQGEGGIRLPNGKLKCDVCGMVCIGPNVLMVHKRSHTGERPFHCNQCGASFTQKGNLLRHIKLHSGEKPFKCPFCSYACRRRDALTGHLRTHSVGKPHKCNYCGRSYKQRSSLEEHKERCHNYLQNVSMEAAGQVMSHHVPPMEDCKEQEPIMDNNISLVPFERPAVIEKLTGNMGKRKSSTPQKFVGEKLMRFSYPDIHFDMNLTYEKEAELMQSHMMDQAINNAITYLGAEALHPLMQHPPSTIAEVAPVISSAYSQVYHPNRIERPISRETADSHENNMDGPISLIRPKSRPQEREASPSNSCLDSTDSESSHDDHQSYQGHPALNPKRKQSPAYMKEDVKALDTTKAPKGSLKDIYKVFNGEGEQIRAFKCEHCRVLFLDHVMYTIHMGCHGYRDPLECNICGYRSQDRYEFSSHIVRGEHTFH
T3 sequence (Q96SW2 whole entry): as the sequence (Q96SW2 whole entry) above
T3 sequence (Q16531 whole entry partner): as the sequence (Q16531 whole entry partner) above
T1 sequence (P30291 whole entry): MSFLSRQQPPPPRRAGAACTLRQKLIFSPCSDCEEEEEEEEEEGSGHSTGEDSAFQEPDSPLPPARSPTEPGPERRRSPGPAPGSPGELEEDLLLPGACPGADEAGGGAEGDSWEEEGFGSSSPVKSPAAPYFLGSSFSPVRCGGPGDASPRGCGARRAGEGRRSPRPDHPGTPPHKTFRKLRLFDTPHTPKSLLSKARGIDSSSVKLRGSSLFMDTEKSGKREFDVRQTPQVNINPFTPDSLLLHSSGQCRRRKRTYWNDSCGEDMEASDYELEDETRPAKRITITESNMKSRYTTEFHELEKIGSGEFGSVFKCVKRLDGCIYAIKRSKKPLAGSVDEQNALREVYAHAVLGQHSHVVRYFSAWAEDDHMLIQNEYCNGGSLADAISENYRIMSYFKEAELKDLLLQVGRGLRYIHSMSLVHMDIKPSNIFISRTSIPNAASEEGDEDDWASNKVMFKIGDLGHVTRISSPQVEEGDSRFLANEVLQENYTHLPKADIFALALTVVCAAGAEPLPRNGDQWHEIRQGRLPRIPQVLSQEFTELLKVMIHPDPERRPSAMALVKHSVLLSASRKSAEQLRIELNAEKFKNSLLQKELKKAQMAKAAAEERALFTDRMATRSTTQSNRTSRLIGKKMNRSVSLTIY
T1 sequence (Q96SW2 whole entry): as the sequence (Q96SW2 whole entry) above
T1 sequence (Q16531 whole entry partner): as the sequence (Q16531 whole entry partner) above
T4 sequence (Q9UKT9 whole entry): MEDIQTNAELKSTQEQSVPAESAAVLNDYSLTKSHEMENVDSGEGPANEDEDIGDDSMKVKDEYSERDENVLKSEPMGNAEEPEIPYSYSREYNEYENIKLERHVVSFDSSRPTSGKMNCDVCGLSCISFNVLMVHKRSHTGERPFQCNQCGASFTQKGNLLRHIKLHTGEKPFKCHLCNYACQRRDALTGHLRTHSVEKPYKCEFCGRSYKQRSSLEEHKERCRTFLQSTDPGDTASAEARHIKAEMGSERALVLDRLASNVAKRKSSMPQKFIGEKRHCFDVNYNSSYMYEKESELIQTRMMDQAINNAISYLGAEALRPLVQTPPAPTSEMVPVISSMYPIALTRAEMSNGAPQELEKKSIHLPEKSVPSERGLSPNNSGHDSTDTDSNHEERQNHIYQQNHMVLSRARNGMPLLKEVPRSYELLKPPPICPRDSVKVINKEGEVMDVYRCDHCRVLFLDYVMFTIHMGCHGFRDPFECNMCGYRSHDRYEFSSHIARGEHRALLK
T4 sequence (Q96SW2 whole entry): as the sequence (Q96SW2 whole entry) above
T4 sequence (Q16531 whole entry partner): as the sequence (Q16531 whole entry partner) above
T2 sequence (Q13422 whole entry): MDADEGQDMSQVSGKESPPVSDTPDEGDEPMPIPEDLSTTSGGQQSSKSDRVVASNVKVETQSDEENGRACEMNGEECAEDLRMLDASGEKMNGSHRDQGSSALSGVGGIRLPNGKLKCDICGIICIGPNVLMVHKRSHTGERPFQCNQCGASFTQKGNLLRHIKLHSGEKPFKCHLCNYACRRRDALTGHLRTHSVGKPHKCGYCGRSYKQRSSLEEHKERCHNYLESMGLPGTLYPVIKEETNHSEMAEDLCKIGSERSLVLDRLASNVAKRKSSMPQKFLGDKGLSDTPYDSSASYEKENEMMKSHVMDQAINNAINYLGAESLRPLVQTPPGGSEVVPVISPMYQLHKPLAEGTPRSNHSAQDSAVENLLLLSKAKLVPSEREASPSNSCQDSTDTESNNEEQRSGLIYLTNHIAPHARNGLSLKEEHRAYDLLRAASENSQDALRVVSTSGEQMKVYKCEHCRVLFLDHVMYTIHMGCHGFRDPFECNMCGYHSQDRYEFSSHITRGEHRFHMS
T2 sequence (Q96SW2 whole entry): as the sequence (Q96SW2 whole entry) above
T2 sequence (Q16531 whole entry partner): as the sequence (Q16531 whole entry partner) above

Row | SMILES | WEE1 substrate protein remaining % (WEE1) | IKZF1 substrate protein remaining % (IKZF1) | IKZF2 substrate protein remaining % (IKZF2) | IKZF3 substrate protein remaining % (IKZF3) | CK1α substrate protein remaining % (CK1α) | GSPT1 substrate protein remaining % (GSPT1)
1 | O=C1CCN(N2C(=O)c3ccc(CN4CCC(c5ccc(Br)cc5)CC4)cc3C2=O)C(=O)N1 [GT-06805, 5-((4-(4-bromophenyl)piperidin-1-yl)methyl)-2-(2,4-dioxotetrahydropyrimidin-1(2H)-yl)isoindoline-1,3-dione] | B ("B" is defined as 80%< substrate protein remaining %≤ 100%) | B ("B" is defined as 80%< substrate protein remaining %≤ 100%) | B ("B" is defined as 80%< substrate protein remaining %≤ 100%) | B ("B" is defined as 80%< substrate protein remaining %≤ 100%) | A ("A" is defined as 0% ≤ substrate protein remaining % ≤ 80%) | B ("B" is defined as 80%< substrate protein remaining %≤ 100%)
2 | O=C1CCN(N2C(=O)c3ccc(CN4CCC(c5ccccc5F)CC4)cc3C2=O)C(=O)N1 [GT-06877, 2-(2,4-dioxotetrahydropyrimidin-1(2H)-yl)-5-((4-(2-fluorophenyl)piperidin-1-yl)methyl)isoindoline-1,3-dione] | B ("B" is defined as 80%< substrate protein remaining %≤ 100%) | B ("B" is defined as 80%< substrate protein remaining %≤ 100%) | B ("B" is defined as 80%< substrate protein remaining %≤ 100%) | B ("B" is defined as 80%< substrate protein remaining %≤ 100%) | A ("A" is defined as 0% ≤ substrate protein remaining % ≤ 80%) | B ("B" is defined as 80%< substrate protein remaining %≤ 100%)
3 | O=C1CCN(N2C(=O)c3ccc(CN4CCC(c5ccc(F)cc5)CC4)cc3C2=O)C(=O)N1 [GT-06878, 2-(2,4-dioxotetrahydropyrimidin-1(2H)-yl)-5-((4-(4-fluorophenyl)piperidin-1-yl)methyl)isoindoline-1,3-dione] | B ("B" is defined as 80%< substrate protein remaining %≤ 100%) | B ("B" is defined as 80%< substrate protein remaining %≤ 100%) | B ("B" is defined as 80%< substrate protein remaining %≤ 100%) | B ("B" is defined as 80%< substrate protein remaining %≤ 100%) | A ("A" is defined as 0% ≤ substrate protein remaining % ≤ 80%) | A ("A" is defined as 0% ≤ substrate protein remaining % ≤ 80%)
4 | O=C1CCN(N2C(=O)c3ccc(CN4CCC(c5ccccc5C(F)(F)F)CC4)cc3C2=O)C(=O)N1 [GT-06879, 2-(2,4-dioxotetrahydropyrimidin-1(2H)-yl)-5-((4-(2-(trifluoromethyl)phenyl)piperidin-1-yl)methyl)isoindoline-1,3-dione] | B ("B" is defined as 80%< substrate protein remaining %≤ 100%) | B ("B" is defined as 80%< substrate protein remaining %≤ 100%) | B ("B" is defined as 80%< substrate protein remaining %≤ 100%) | B ("B" is defined as 80%< substrate protein remaining %≤ 100%) | B ("B" is defined as 80%< substrate protein remaining %≤ 100%) | A ("A" is defined as 0% ≤ substrate protein remaining % ≤ 80%)
5 | O=C1CCN(N2C(=O)c3ccc(CN4CCC(c5cccc(C(F)(F)F)c5)CC4)cc3C2=O)C(=O)N1 [GT-06880, 2-(2,4-dioxotetrahydropyrimidin-1(2H)-yl)-5-((4-(3-(trifluoromethyl)phenyl)piperidin-1-yl)methyl)isoindoline-1,3-dione] | A ("A" is defined as 0% ≤ substrate protein remaining % ≤ 80%) | B ("B" is defined as 80%< substrate protein remaining %≤ 100%) | B ("B" is defined as 80%< substrate protein remaining %≤ 100%) | B ("B" is defined as 80%< substrate protein remaining %≤ 100%) | B ("B" is defined as 80%< substrate protein remaining %≤ 100%) | B ("B" is defined as 80%< substrate protein remaining %≤ 100%)
6 | Cc1ccc(N2CCN(Cc3ccc4c(c3)CN(N3CCC(=O)NC3=O)C4=O)CC2)c(C)c1 [GT-06882, 1-(5-((4-(2,4-dimethylphenyl)piperazin-1-yl)methyl)-1-oxoisoindolin-2-yl)dihydropyrimidine-2,4(1H,3H)-dione] | A ("A" is defined as 0% ≤ substrate protein remaining % ≤ 80%) | A ("A" is defined as 0% ≤ substrate protein remaining % ≤ 80%) | B ("B" is defined as 80%< substrate protein remaining %≤ 100%) | B ("B" is defined as 80%< substrate protein remaining %≤ 100%) | B ("B" is defined as 80%< substrate protein remaining %≤ 100%) | A ("A" is defined as 0% ≤ substrate protein remaining % ≤ 80%)
7 | Cc1ccc(Cl)cc1N1CCN(Cc2ccc3c(c2)CN(N2CCC(=O)NC2=O)C3=O)CC1 [GT-06883, 1-(5-((4-(5-chloro-2-methylphenyl)piperazin-1-yl)methyl)-1-oxoisoindolin-2-yl)dihydropyrimidine-2,4(1H,3H)-dione] | A ("A" is defined as 0% ≤ substrate protein remaining % ≤ 80%) | A ("A" is defined as 0% ≤ substrate protein remaining % ≤ 80%) | B ("B" is defined as 80%< substrate protein remaining %≤ 100%) | B ("B" is defined as 80%< substrate protein remaining %≤ 100%) | B ("B" is defined as 80%< substrate protein remaining %≤ 100%) | A ("A" is defined as 0% ≤ substrate protein remaining % ≤ 80%)
8 | O=C1CCN(N2Cc3cc(CN4CCC(c5ccc(Br)cc5)CC4)ccc3C2=O)C(=O)N1 [GT-06886, 1-(5-((4-(4-bromophenyl)piperidin-1-yl)methyl)-1-oxoisoindolin-2-yl)dihydropyrimidine-2,4(1H,3H)-dione] | B ("B" is defined as 80%< substrate protein remaining %≤ 100%) | B ("B" is defined as 80%< substrate protein remaining %≤ 100%) | A ("A" is defined as 0% ≤ substrate protein remaining % ≤ 80%) | B ("B" is defined as 80%< substrate protein remaining %≤ 100%) | B ("B" is defined as 80%< substrate protein remaining %≤ 100%) | A ("A" is defined as 0% ≤ substrate protein remaining % ≤ 80%)
